# Assay results taken from patent publication US7371734B2, “Oligonucleotide compositions and their use for the modulation of immune responses” (Bioniche Life Sciences Inc., priority 2002, dated 2008).
# Marks after values point to notes of the source that are not given here.
# Legend:
# Format in all cases: cell-based
# Human dendritic cells [1] = test: Induction of IL-1beta production by DC (ELISA); conditions: 100 μg, 48 hours
# Description: (§1) Human dendritic cells were obtained from Clonetics (San Diego, Calif., USA) and were cultured in the medium recommended by Clonetics. DC were obtained from three different individuals (see Table 1). Major histocompatability typing was performed on each of these individuals and several of the HLA (human leukocyte antigens) types are shown.
# DC were seeded in 1.0 ml at 1.0×10^5 cells/ml in 6-well flat-bottomed tissue culture plates for 48 hours with 100 μg of 6 base N1A, N1B, N2A, N2B, N3A, N3B, N4A, N4B, N5A, N5B, N6A, N6B, N7A or N7B polynucleotides. Production of IL-1beta was determined in 100 μl of culture supernatant using a commercial ELISA (BioSource, Camarillo, Calif., USA) after 48 hours of incubation. Results are expressed as the “fold” (x) increase in IL-1beta production by treated DC compared to control cells.
# Human dendritic cells [2] = test: CD80 levels at the DC cell surface (flow cytometry); conditions: 100 μg, 48 hours
# Description: as §1
# DC from individuals B and C were seeded in 1.0 ml at 1.0×10^5 cells/ml in 6-well flat-bottomed tissue culture plates for 48 hours with 100 μg of 6 base N1A, N1B, N2A, N2B, N3A, N3B, N4A, N4B, N5A, N5B, N6A, N6B, N7A or N7B polynucleotides. The level of CD80 at the cell surface was determined after 48 hours of incubation by flow cytometry using a FITC-conjugated monoclonal antibody directed to CD80 (Serotec, Oxford, U.K.) and analyzed by CELLQuest. Results are expressed as the percentage of CD80^hi DC following treatment.
# Human dendritic cells [3] = test: Induction of IL-12 by sequences plus GM-CSF (ELISA); conditions: 100 μg, 48 hours
# Description: as §1
# DC from the individual B were seeded in 1.0 ml at 1.0×10^5 cells/ml in 6-well flat-bottomed tissue culture plates for 48 hours with 500 units of human recombinant GM-CSF (Clonetics) and 100 μg of 6 base polynucleotide N1A or polynucleotide N7A. Production of IL-12 was determined in 100 μl of culture supernatant using a commercial ELISA (BioSource) after 48 hours of incubation. Results are expressed as the “fold” (x) increase in IL-12 production by treated DC compared to control cells in absence or presence of recombinant GM-CSF.
# Human dendritic cells [4] = test: Increase in cell size and granularity of DC (flow cytometry); conditions: 100 μg polynucleotide, 48 hours
# Description: as §1
# DC were seeded in 1.0 ml at 1.0×10^5 cells/ml in 6-well flat-bottomed tissue culture plates for 48 hours with 100 μg of 6 base N1A, N1B, N2A, N2B, N3A, N3B, N4A, N4B, N5A, N5B, N6A, N6B, N7A or N7B polynucleotides. Cell size (FCS: forward side scatter) and granularity (S SC: side light scatter) were determined by flow cytometry using a FACSCalibur and analyzed using the CELLQuest Pro software (both from Becton-Dickinson, San Diego, Calif., USA). Percentage of DC showing a FCS>500 units and a SSC>400 units have been determined after treatment with 3-OH, 5-OH polynucleotides for DC isolated from three different individuals.
# Human dendritic cells [5] = test: CD40 levels at the DC cell surface (flow cytometry); conditions: 100 μg, 48 hours
# Description: as §1
# DC from individuals B and C were seeded in 1.0 ml at 1.0×10^5 cells/ml in 6-well flat-bottomed tissue culture plates for 48 hours with 100 μg of 6 base N1A, N1B, N2A, N2B, N3A, N3B, N4A, N4B, N5A, N5B, N6A, N6B, N7A or N7B polynucleotides. The level of CD40 at the cell surface was determined after 48 hours of incubation by flow cytometry (FACSCalibur system) using a FITC-conjugated monoclonal antibody directed to CD40 and analyzed by CELLQuest Pro (all from Becton Dickinson). Results are expressed as the percentage of CD40^hi DC following treatment. The term “CD40^hi” refers to a population of cells identified by flow cytometry as having higher than baseline expression of CD40.
# Human dendritic cells [6] = test: Induction of IL-12 production by DC (ELISA); conditions: 100 μg, 48 hours
# Description: as §1
# DC were seeded in 1.0 ml at 1.0×10^5 cells/ml in 6-well flat-bottomed tissue culture plates for 48 hours with 100 μg of 6 base N1A, N1B, N2A, N2B, N3A, N3B, N4A, N4B, N5A, N5B, N6A, N6B, N7A or N7B polynucleotides. Production of IL-12 was determined in 100 μl of culture supernatant using a commercial ELISA (BioSource) after 48 hours of incubation. Results are expressed as the “fold” (x) increase in IL-12 production by treated DC compared to control cells.
# Human dendritic cells [7] = test: MHC-II levels at the DC cell surface (flow cytometry); conditions: DC from individual B; 100 μg, 48 hours
# Description: as §1
# DC from individual B were seeded in 1.0 ml at 1.0×10^5 cells/ml in 6-well flat-bottomed tissue culture plates for 48 hours with 100 μg of 6 base N1A, N1B, N2A, N2B, N3A, N3B, N5A, N5B, N6A, N6B, N7A or N7B polynucleotides. The level of MHC II at the cell surface was determined after 48 hours of incubation by flow cytometry using a FITC-conjugated monoclonal antibody directed to MHC II (Serotec) and analyzed by CELLQuest Pro. Results are expressed as the percentage of MHC II^hi DC following treatment.
# Human dendritic cells [8] = test: Induction of IFN-gamma production by DC (ELISA); conditions: 100 μg, 48 hours
# Description: as §1
# DC were seeded in 1.0 ml at 1.0×10^5 cells/ml in 6-well flat-bottomed tissue culture plates for 48 hours with 100 μg of6 base N1A, N1B, N2A, N2B, N3A, N3B, N4A, N4B, N5A, N5B, N6A, N6B, N7A or N7B polynucleotides. Production of IFN-gamma was determined in 100 μl of culture supernatant using a commercial ELISA (BioSource) after 48 hours of incubation. Results are expressed as the “fold” (x) increase in IFN-gamma production by treated DC compared to control cells.
# Human dendritic cells [9] = test: CD86 levels at the DC cell surface (flow cytometry); conditions: 100 μg, 48 hours
# Description: as §1
# DC from individuals B and C were seeded in 1.0 ml at 1.0×10^5 cells/ml in 6-well flat-bottomed tissue culture plates for 48 hours with 100 μg of 6 base N1A, N1B, N2A, N2B, N3A, N3B, N4A, N4B, N5A, N5B, N6A, N6B, N7A or N7B polynucleotides. The level of CD86 at the cell surface was determined after 48 hours of incubation by flow cytometry using a PE-conjugated monoclonal antibody directed to CD86 (Serotec) and analyzed by CELLQuest Pro. Results are expressed as the percentage of CD86^hi DC following treatment.
substance,measurement,setting,value
5′GTGTGT3′ [N1A],IL-1beta production by DC (fold increase compared to untreated DC),Human dendritic cells [1]; DC isolated from individual A,1.0 fold
same,IL-1beta production by DC (fold increase compared to untreated DC),Human dendritic cells [1]; DC isolated from individual B,1.2 fold
same,IL-1beta production by DC (fold increase compared to untreated DC),Human dendritic cells [1]; DC isolated from individual C,1.0 fold
same,The percentage of CD80^hi DC following treatment,Human dendritic cells [2]; DC from individual B,45** %
same,The percentage of CD80^hi DC following treatment,Human dendritic cells [2]; DC from individual C,41** %
same,IL-12 production by DC from the individual B (fold increase compared to untreated DC),Human dendritic cells [3]; +GM-CSF (500 units human recombinant),15.3 fold
same,IL-12 production by DC from the individual B (fold increase compared to untreated DC),Human dendritic cells [3]; w/o GM-CSF,14.7 fold
same,Percentage of DC showing a FCS > 500 units and a SSC > 400 units,Human dendritic cells [4]; DC isolated from individual A,6%
same,Percentage of DC showing a FCS > 500 units and a SSC > 400 units,Human dendritic cells [4]; DC isolated from individual B,9%
same,Percentage of DC showing a FCS > 500 units and a SSC > 400 units,Human dendritic cells [4]; DC isolated from individual C,18%
same,The percentage of CD40^hi DC following treatment,Human dendritic cells [5]; DC from individual B,21%
same,The percentage of CD40^hi DC following treatment,Human dendritic cells [5]; DC from individual C,24** %
same,IL-12 production by DC (fold increase compared to untreated DC),Human dendritic cells [6]; DC isolated from individual A,15.9 fold
same,IL-12 production by DC (fold increase compared to untreated DC),Human dendritic cells [6]; DC isolated from individual B,17.8 fold
same,IL-12 production by DC (fold increase compared to untreated DC),Human dendritic cells [6]; DC isolated from individual C,2.1 fold
same,The percentage of MHC-II^hi DC following treatment,Human dendritic cells [7],32** %
same,IFN-gamma production by DC (fold increase compared to untreated DC),Human dendritic cells [8]; DC isolated from individual A,0.8 fold
same,IFN-gamma production by DC (fold increase compared to untreated DC),Human dendritic cells [8]; DC isolated from individual B,1.0 fold
same,IFN-gamma production by DC (fold increase compared to untreated DC),Human dendritic cells [8]; DC isolated from individual C,1.0 fold
same,The percentage of CD86^hi DC following treatment,Human dendritic cells [9]; DC from individual B,10%
same,The percentage of CD86^hi DC following treatment,Human dendritic cells [9]; DC from individual C,14%
